{
  "source": "patent US5001158A",
  "about": "“Nitrosoureas compounds preparation thereof and utilization thereof in anticancerous” (Centre National de la Recherche Scientifique, priority 1990, dated 1991)",
  "key": {"leukemia L 1210": {"test_system": "leukemia L 1210", "test": "Antitumoral activity of A1 and A2 on leukemia L 1210 grafted i.p. in mice (ICIG)", "type": "in vivo, mice (B6 D2 F1 OLA)", "description": "This activity was also studied on mice carrying leukemia L 1210 grafted i.p. This experimental tumor is the one most frequently used in the primary screening of cytostatic drugs.\nThese tests were conducted in parallel in two laboratories: at Unit 71 of the Institut National de la Sante et de la Recberche Mediecale (INSERM), ClermontFerrand, and at the Institut de Cancerologie et d' Immunogenetique (ICIG), Villejuif.\nOn day D:0, three-month-old male B6 D2 F1 mice received 10^5 cells of the leukemia strain L 1210 by intraperitoneal administration. The animals are divided up into groups of 8 to 10 animals for the control groups and 6 to 8 animals for the treated groups. On days D:1, D:5 and D:9, the animals receive the treatment at different doses by intraperitoneal or intravenous administration. The CNCC is administered as a suspension in olive oil. The products according to the invention are administered in physiological serum. The mortality is recorded every day. The survival median was determined for the treated animals and the control animals. The results are considered to be positive if the index I= [formula] is greater than 125.\nThe value .infin. means that 50% to 100% of the animals have survived to day D:90.\nThe cytostatic activity oi A1 and A2 on leukemia L 1210 was evaluated on B6 D2 F1 OLA mice at ICIG.\nICIG also studied the antitumoral activity of each isomer A1 and A2, separately administered intravenously, on leukemia L 1210. […] Comparison of the active doses with those of CNCC is impossible because of the insolubility of CNCC, as mentioned previously."}, "[1]": {"test": "Plasma concentrations of A1 and A2 after oral administration, mice", "type": "in vivo", "details": "mouse, n = 10; for concentration at 1.5 h: 1 H 30 MIN; for concentration: 3 H; for concentration at 4.5 h: 4 H 30 MIN; for concentration at 0.25 h: 15 MIN; for concentration at 0.5 h: 30 MIN; for concentration at 0.75 h: 45 MIN", "description": "(§1) The plasma absorption and clearance kinetics of the products A1 and A2 according to the invention were studied on different animal species after oral administration. A mixture A1 A2 in the proportions 70%/30% was used so as to be able to make a comparison with CNCC. The mixture A1 A2 and the CNCC were administered at equivalent doses and the plasma concentrations of A1 and A2 were measured as a function of time. cl (a) Experimental protocol\n(§2) A solution of the mixture A1 A2 in distilled water is administered by stomach tube at a dose of 574 mg/m^2. A suspension of CNCC in olive oil is administered at a dose of 500 mg/m^2, also by stomach tube.\n(§3) The blood, taken by cardiac puncture, is centrifuged rapidly at 4° C. The plasma (1 ml) is deposited on a cartridge of Extrelut® and extraction is carried out with 6 ml of methylene chloride. After evaporation, the dry extract is taken up in 150 μl of methylene chloride for chromatographic analysis.\n(§4) Analysis of the plasma extracts for measuring the concentrations of A1 and A2 was performed by high performance liquid chromatography using the following technology:\n(§5) Detector: Pye Unicam spectrophotometer (Philips)λ250 nm.\n(§6) Elution carried out by means of a linear gradient ranging from methylene chloride 99.6%/ethanol 0.4% to methylene chloride 95%/ethanol 5% in 15 minutes"}, "[2]": {"test": "Plasma concentrations of A1 and A2 after oral administration, rats", "type": "in vivo", "details": "rat, n = 5; for concentration at 1.5 h: 1 H 30 MIN; for concentration: 3 H; for concentration at 0.25 h: 15 MIN; for concentration at 0.5 h: 30 MIN; for concentration at 0.75 h: 45 MIN", "description": "as §1, §2, §3, §4, §5, §6"}, "[3]": {"test": "Plasma concentrations of A1 and A2 after oral administration, rabbits", "type": "in vivo", "details": "rabbit, n = 5; for concentration at 1.5 h: 1 H 30 MIN; for concentration: 3 H; for concentration at 4.5 h: 4 H 30 MIN; for concentration at 0.25 h: 15 MIN; for concentration at 0.5 h: 30 MIN; for concentration at 0.75 h: 45 MIN", "description": "as §1, §2, §3, §4, §5, §6"}, "[4]": {"test": "Pharmacokinetic comparison of mixture A1 A2 with CNCC, all animal species", "type": "in vivo, mice, rats and rabbits", "details": "p.o.", "description": "as §1, §2, §3, §4\nThe plasma concentrations of A1 and A2 after oral administration of either the mixture A1 A2 or CNCC to mice, rats and rabbits are reported in Table V."}, "[5]": {"details": "after mixture A1 A2 574 mg/m^2 p.o."}},
  "data": [
    {"smiles": "C[S+]([O-])CCN(N=O)C(=O)NCCCl", "note": "(centres unmarked) [Compound A1]", "values": [
      {"measurement": "T/C × 100 (cell: toxic)", "setting": "leukemia L 1210; 60 mg/kg i.v.", "result": "toxic"},
      {"measurement": "antitumoral activity (in words)", "setting": "leukemia L 1210; i.v., isomers separately", "result": "low activity"},
      {"measurement": "concentration at 1.5 h", "setting": "[1]; after CNCC 500 mg/m^2 p.o.", "result": 26.2, "unit": "µM"},
      {"measurement": "concentration at 1 h", "setting": "[1]; after CNCC 500 mg/m^2 p.o.", "result": 37.1, "unit": "µM"},
      {"measurement": "concentration at 2 h", "setting": "[1]; after CNCC 500 mg/m^2 p.o.", "result": 20.2, "unit": "µM"},
      {"measurement": "concentration", "setting": "[1]; after CNCC 500 mg/m^2 p.o.", "result": 11, "unit": "µM"},
      {"measurement": "concentration at 4.5 h", "setting": "[1]; after CNCC 500 mg/m^2 p.o.", "result": 6.5, "unit": "µM"},
      {"measurement": "concentration at 5 min", "setting": "[1]; after CNCC 500 mg/m^2 p.o.", "result": 13.7, "unit": "µM"},
      {"measurement": "concentration at 0.25 h", "setting": "[1]; after CNCC 500 mg/m^2 p.o.", "result": 34.2, "unit": "µM"},
      {"measurement": "concentration at 0.5 h", "setting": "[1]; after CNCC 500 mg/m^2 p.o.", "result": 71.4, "unit": "µM"},
      {"measurement": "concentration at 0.75 h", "setting": "[1]; after CNCC 500 mg/m^2 p.o.", "result": 32.8, "unit": "µM"},
      {"measurement": "concentration at 1.5 h", "setting": "[1]; [5]", "result": 35.4, "unit": "µM"},
      {"measurement": "concentration at 1 h", "setting": "[1]; [5]", "result": 88, "unit": "µM"},
      {"measurement": "concentration at 2 h", "setting": "[1]; [5]", "result": 23.3, "unit": "µM"},
      {"measurement": "concentration", "setting": "[1]; [5]", "result": 10.1, "unit": "µM"},
      {"measurement": "concentration at 4.5 h", "setting": "[1]; [5]", "result": 4.3, "unit": "µM"},
      {"measurement": "concentration at 5 min", "setting": "[1]; [5]", "result": 208, "unit": "µM"},
      {"measurement": "concentration at 0.25 h", "setting": "[1]; [5]", "result": 206, "unit": "µM"},
      {"measurement": "concentration at 0.5 h", "setting": "[1]; [5]", "result": 177, "unit": "µM"},
      {"measurement": "concentration at 0.75 h", "setting": "[1]; [5]", "result": 124, "unit": "µM"},
      {"measurement": "concentration at 1.5 h", "setting": "[2]; after CNCC 500 mg/m^2 p.o.", "result": 20.3, "unit": "µM"},
      {"measurement": "concentration at 1 h", "setting": "[2]; after CNCC 500 mg/m^2 p.o.", "result": 18.4, "unit": "µM"},
      {"measurement": "concentration at 2 h", "setting": "[2]; after CNCC 500 mg/m^2 p.o.", "result": 12.7, "unit": "µM"},
      {"measurement": "concentration", "setting": "[2]; after CNCC 500 mg/m^2 p.o.", "result": 11.1, "unit": "µM"},
      {"measurement": "concentration at 4.5 h", "setting": "[2]; after CNCC 500 mg/m^2 p.o., 4 H 30 MIN", "result": 3.9, "unit": "µM"},
      {"measurement": "concentration at 5 min", "setting": "[2]; after CNCC 500 mg/m^2 p.o.", "result": 2.8, "unit": "µM"},
      {"measurement": "concentration at 0.25 h", "setting": "[2]; after CNCC 500 mg/m^2 p.o.", "result": 8, "unit": "µM"},
      {"measurement": "concentration at 0.5 h", "setting": "[2]; after CNCC 500 mg/m^2 p.o.", "result": 12, "unit": "µM"},
      {"measurement": "concentration at 0.75 h", "setting": "[2]; after CNCC 500 mg/m^2 p.o.", "result": 14.8, "unit": "µM"},
      {"measurement": "concentration at 1.5 h", "setting": "[2]; [5]", "result": 29.2, "unit": "µM"},
      {"measurement": "concentration at 1 h", "setting": "[2]; [5]", "result": 32.9, "unit": "µM"},
      {"measurement": "concentration at 2 h", "setting": "[2]; [5]", "result": 15.7, "unit": "µM"},
      {"measurement": "concentration", "setting": "[2]; [5]", "result": 7.3, "unit": "µM"},
      {"measurement": "concentration at 5 min", "setting": "[2]; [5]", "result": 22.3, "unit": "µM"},
      {"measurement": "concentration at 0.25 h", "setting": "[2]; [5]", "result": 42.4, "unit": "µM"},
      {"measurement": "concentration at 0.5 h", "setting": "[2]; [5]", "result": 52.9, "unit": "µM"},
      {"measurement": "concentration at 0.75 h", "setting": "[2]; [5]", "result": 33.9, "unit": "µM"},
      {"measurement": "concentration at 1.5 h", "setting": "[3]; after CNCC 500 mg/m^2 p.o.", "result": 8.6, "unit": "µM"},
      {"measurement": "concentration at 2 h", "setting": "[3]; after CNCC 500 mg/m^2 p.o.", "result": 7.4, "unit": "µM"},
      {"measurement": "concentration", "setting": "[3]; after CNCC 500 mg/m^2 p.o.", "result": 4.7, "unit": "µM"},
      {"measurement": "concentration at 4.5 h", "setting": "[3]; after CNCC 500 mg/m^2 p.o.", "result": 2.8, "unit": "µM"},
      {"measurement": "concentration at 5 min", "setting": "[3]; after CNCC 500 mg/m^2 p.o.", "result": 5, "unit": "µM"},
      {"measurement": "concentration at 0.25 h", "setting": "[3]; after CNCC 500 mg/m^2 p.o.", "result": 9.4, "unit": "µM"},
      {"measurement": "concentration at 0.5 h", "setting": "[3]; after CNCC 500 mg/m^2 p.o.", "result": 10.6, "unit": "µM"},
      {"measurement": "concentration at 0.75 h", "setting": "[3]; after CNCC 500 mg/m^2 p.o.", "result": 10, "unit": "µM"},
      {"measurement": "concentration at 1.5 h", "setting": "[3]; [5]", "result": 27, "unit": "µM"},
      {"measurement": "concentration at 1 h", "setting": "[3]; after mixture A1 A2 574 mg/m^2 p.o., 1 H", "result": 39.4, "unit": "µM"},
      {"measurement": "concentration at 2 h", "setting": "[3]; [5]", "result": 19.4, "unit": "µM"},
      {"measurement": "concentration", "setting": "[3]; [5]", "result": 10.6, "unit": "µM"},
      {"measurement": "concentration at 4.5 h", "setting": "[3]; [5]", "result": 3.8, "unit": "µM"},
      {"measurement": "concentration at 5 min", "setting": "[3]; [5]", "result": 26.7, "unit": "µM"},
      {"measurement": "concentration at 0.25 h", "setting": "[3]; [5]", "result": 28.5, "unit": "µM"},
      {"measurement": "concentration at 0.5 h", "setting": "[3]; [5]", "result": 41, "unit": "µM"},
      {"measurement": "concentration at 0.75 h", "setting": "[3]; [5]", "result": 39.2, "unit": "µM"},
      {"measurement": "bioavailability compared with CNCC (in words)", "setting": "[4]", "result": "greater than that of CNCC"},
      {"measurement": "plasma concentrations after A1 A2 compared with after CNCC (in words)", "setting": "[4]; equivalent doses, whatever the animal species", "result": "much higher"}
    ]}
  ]
}
